Earlier results, collected in US7300682B2, “Method of preparation and use of coconut water in mamalian tissue nourishment growth and healthy maintenance” (Sabinsa Corporation, priority 2000, dated 2007).

System: Abelmoschus esculetus L and Solanum gilo L
Conditions: 100 mg/L

## C=C1C[C@]23C[C@@]1(O)CC[C@H]2[C@@]12C=C[C@H](O)[C@@](C)(C(=O)O1)[C@H]2[C@@H]3C(=O)O [GA3, gibberelic acid]
  effect on plant height, yield, chlorophyll and vitamin contents: significantly effective
